Key:
A549 cells = assay: Mitochondrial membrane potential (ΔΨm) change, JC-1 flow cytometry; format: cell-based, human; details: 2 μg/mL GA equivalent (CCCP 50 μM), 24 h
HeLa cells = assay: as above; format: cell-based; details: 2 μg/mL GA equivalent (CCCP 50 μM), 24 h
HCT116 cells = assay: Cellular apoptosis by flow cytometry (Annexin V-FITC/PI); format: cell-based, human; details: HCT 116; 2 μg/mL GA or equal amount loaded; 24 h
Description: Apoptosis was assessed using staining with Annexin V-FITC/PI apoptosis detection kit (Affymetrix, CA) according to the manufacturer's instruction followed by flow cytometry analysis.

[1] = test system: MCF-7 human breast cancer xenograft tumor; details: xenograft tumor at end of study
Description: In vivo xenograft Protocols Used. Female BALB/c nude mice, 8-weeks old, were obtained from the Laboratory Animal Services Centre, The Chinese University of Hong Kong. Mice were kept at room temperature 23±2° C. with an alternating 12-h light-dark cycle, and were allowed access to food and water ad libitum.
Before inoculation, 10 mg/kg Estradiol benzoate was given into mice through intraperitoneal (IP) injection with 2-day intervals. MCF-7 cells (4×10^6 cells per mouse) were suspended in PBS and inoculated subcutaneously into the left flank of each mouse, and tumor growth was monitored regularly. […] Equal volumes of saline were used as solvent for the free drug groups.
The therapy was continued six times at 2-day intervals through tail vein injection. Estradiol benzoate was also IP injected into mice at 2-day intervals during administration. The antitumor activity of the tested formulations was estimated by recording the changes in tumor mass. Tumor volumes were monitored by recording the tumor length and width with a caliper then calculated using the equation, V=0.5×a×b^2, where V is tumor volume (mm), a is tumor length (mm), and b is tumor width (mm). Mice were sacrificed on the 12th day after administration, and the tumors were weighed. […]

[2] = test system: MMP-2 and MMP-9 activity of A549 cells; assay: Gelatin zymography of MMP activity; format: cell-based, human; details: 0.6 μg/mL GA equivalent, serum-free media, 16 h

## N#CC(C#N)=NNc1cccc(Cl)c1 [CCCP, carbonyl cyanide 3-chlorophenylhydrazone]
A549 cells
  percentage of cell population with severe loss of ΔΨm: 89.7%
HeLa cells
  percentage of cell population with severe loss of ΔΨm: 60.0%

## CC(C)=CCC[C@]1(C)C=Cc2c(O)c3c(c(CC=C(C)C)c2O1)O[C@]12C(=C[C@@H]4C[C@H]1C(C)(C)O[C@@]2(C/C=C(/C)C(=O)O)C4=O)C3=O [GA, Gambogic acid]
HCT116 cells
  percentage of dead cells: 27.7%
  percentage of healthy cells: 68.1%
  percentage of late apoptotic cells: 2.0%
A549 cells
  percentage of cell population with severe loss of ΔΨm: 60.1%
[1]
  H&E staining: vacuoles in the tumor tissue: fewer vacuoles
[2]
  MMP band size and intensity / MMP activity (gelatin zymography): reduced when comparing to the control sample
HeLa cells
  percentage of cell population with severe loss of ΔΨm: 29.7%

From patent US11090273B2, “Tagged poly(ester amide urethane)s, nanoparticles formed from same, and uses thereof” (Cornell University, priority 2016, dated 2021)
